Values after ≈ are worked out from the molar mass of the structure shown. Where two headings read alike, the source gives them in different places.
Experiments:
[1] = test system: HIV; assay: Anti-HIV evaluation by MTT-tetrazolium method (inhibition of CPE in MT-2 / CEM-SS cells); assay type: cell-based; details: Human immunodeficiency virus 1, CEM-SS; read-out: Antiviral Activities (EC50) HIV
Description: This example illustrates the anti-HIV activity of various coumarin and chromene compounds which were evaluated using the published MTT-tetrazolium methods^8. Retroviral agents AZT and DDC were used as controls for comparison purposes.
The cells used for screening were the MT-2 and the human T4-lymphoblastoid cell line, CEM-SS, and were grown in RPMI 1640 medium supplemented with 10% fetal (v/v) heat-inactivated fetal calf serum and also containing 100 units/mL penicillin, 100 μg/mL streptomycin, 25 mM HEPES and 20 μg/mL gentamicin. The medium used for dilution of drugs and maintenance of cultures during the assay was the same as above. The HTLV-IIIB and HTLV-RF were propagated in CEM-SS. The appropriate amounts of the pure compounds for anti-HIV evaluations were dissolved in DMSO, then diluted in medium to the desired initial concentration. The concentrations (M medium) employed were […]; 0.001 μM; 0.0032 μM; 0.01 μM; 0.032 μM; 0.1 μM; 0.32 μM; 1 μM; 3.2 μM; 10 μM; 32 μM; and 100 μM. Each dilution was added to plates in the amount of 100 μL/well. Drugs were tested in triplicate wells per dilution with infected cells while in duplicate wells per dilution with uninfected cells for evaluation of cytotoxicity. On day 6 (CEM-SS cells) and day 7 (MT-2 cells) post-infection, the viable cells were measured with a tetrazolium salt, MTT (5 mg/mL), added to the test plates. A solution of 20% SDS in 0.001 N HCl is used to dissolve the MTT formazan produced. The optical density value was a function of the amount of formazan produced which was proportional to the number of viable cells. The percent inhibition of CPE per drug concentration was measured as a test over control and expressed in percent (T/C %).

[2] = test system: EBV; assay: EBV assay: superinfection of Raji or Daudi cells with P3HR-1, immunofluorescence for EA and VCA; assay type: cell-based, Epstein-Barr Virus (P3HR-1)
Excerpt: There are two prototypes of infectious EBV. One is exemplified by the virus derived from supernatant fluids of the P3HR-1cell line. This cell line produces nontransforming virus that causes the production of early antigen (EA) after primary infection or superinfection of B cell lines. The other prototype is exemplified by the B-95-8 virus. This virus immortalized cord blood lymphocytes and induced tumors in marmosets. […] The virus used in our assays is P3HR-1.
Ramos is an exceptional B cell line derived from Burkitt's lymphoma tumor but containing no detectable EBV genome copies and is EBNA negative. Ramos/AW was obtained by in vitro infection of Ramos with the P3HR-1 virus and contains one resident EBV genome copy/cell. Raji is a Burkitt's lymphoma cell line containing 60 EBV genomes/cell, and will be the primary cell used for screening antiviral activity against EBV EA expression. Daudi is a low level producer that contains 152 EBV genome copies/cell. It spontaneously expresses EBV EA in 0.25%-0.5% of the cells. It will be used in follow-up studies to confirm activity. These cell lines respond to superinfection by EBV by expressing EA(D), EA(R), and VCA. All cell lines are maintained in RPMI-1640 medium supplemented by 10% FCS, L-glutamine and 100 μg/mL gentamicin. The cultures are fed twice weekly and the cell concentration adjusted to 3×10^5/mL. The cells are kept at 37° C. in a humidified atmosphere with 5% CO2.
Cells are infected with the P3HR-1 strain of EBV and the drugs to be tested are added after adsorption (45 minutes at 37° C.) and washing of the cell cultures. The cultures are incubated for two days in complete medium to allow viral gene expression. Following the 48 hr incubation period, the number of cells of each sample are counted and smears made. Monoclonal antibodies to the different EA components and VCA are then added to the cells incubated and washed. This is followed by a fluorescein conjugated rabbit anti-mouse Ig antibody; and the number of fluorescence positive cells in the smears are counted. The total number of cells in the cultures positive for EA or VCA are then calculated and compared.

[3] = test system: HBV; assay: HBV replication in cultures of 2.2.15 cells (HBV DNA blot hybridization); assay type: cell-based; details: Hepatitis B virus; read-out: Antiviral Activities (EC50) HBV
Description: Test compounds are then added daily for a continuous 9 day period. Culture medium (changed daily during the treatment period) is collected and stored for analysis of extracellular (virion) HBV DNA after 0, 3, 6, and 9 days of treatment. Treated cells are lysed 24 hours following day 9 of treatment for the analysis of intracellular HBV genomic forms. HBV DVA is then analyzed in a quantitative and qualitative manner for overall levels of HBV DNA (both extracellular and intracellular DNA) and the relative rate of HBV replication (intracellular DNA).
Both intracellular and extracellular HBV DNA are analyzed in order to (i) allow for verification of compound efficacy and (ii) provide possible data on the target site in the HBV replication pathway for the compound from examination of the pattern of viral replicative forms. The culture medium is changed daily during the treatment period to (i) prevent the buildup of potentially toxic metabolites derived from test compounds and (ii) provide an analysis of HBV virion production during discrete 24-hour intervals which enables a quantitative comparison of any effect on virion production.
The analysis of HBV DNA is performed using blot hybridization techniques (Southern and slot blot) and [^32P]-labeled HBV-specific probes. HBV DNA levels are measured by comparison to known amounts of HBV DNA standards applied to every nitrocellulose membrane (gel or slot blot). An AMBIS beta scanner, which measures the radioactive decay of the hybridized probes directly from the nitrocellulose membranes, is used for the quantitative analysis. Standard curves, generated by multiple analyses, are used to correlate CPM measurements made by the beta scanner with relative levels of target HBV DNA. The levels of HBV virion DNA released into the culture medium are analyzed by a slot blot hybridization procedure. HBV DNA levels are then compared to those at Day 0 to determine the effect of drug treatment.
The levels of RI and episomal monomers are used as an indicator of the relative level of HBV replication. Integrated HBV DNA is used to normalize the relative amounts of DNA in each lane because the levels of this class of HBV DNA would be expected to remain constant on a per cell basis. […] Inhibition of HBV DNA replication is indicated by the loss of RI without changes in the level of integrated HBV DNA.

[4] = test system: Measles Virus; assay: Measles virus antiviral assay (CPE inhibition, neutral red uptake, virus yield); assay type: cell-based, Measles virus strain CC; details: Measles morbillivirus
[5] = test system: Respiratory Syncytial Virus; assay: Respiratory syncytial virus antiviral assay (CPE inhibition, neutral red uptake); assay type: cell-based, Respiratory syncytial virus strain Utah 89; details: human respiratory syncytial virus
[6] = test system: Rhinovirus; assay: Rhinovirus antiviral assay (CPE inhibition, neutral red uptake, virus yield); assay type: cell-based; details: Enterovirus
[7] = test system: VZV; assay: VZV plaque reduction assay in human foreskin fibroblast cells; assay type: cell-based, Varicella Zoster Virus (Ellen strain)
Description: [table] Two days prior to use, HFF cells are plated into six-well plates and incubated at 37° C. with 5% CO2 and 90% humidity. On the date of assay, the drug is made up at twice the desired concentration in 2×MEM and then serially diluted 1:5 in 2×MEM using six concentrations of drug. […] The media is then aspirated from the wells and 0.2 mL of virus is added to each well in duplicate with 0.2 mL of media being added to drug toxicity wells. The plates are then incubated for one hour with shaking every fifteen minutes. […] The drug agarose mixture is applied to each well in 2 mL volume and the plates then incubated for three days, after which the cells were stained with a 1.5% solution of neutral red. At the end of 4-6 hr incubation period, the stain is aspirated, and plaques counted using a stereomicroscope at 10× magnification. The procedure is essentially the same as for the HSV plaque assay described above with two exceptions: 1. After addition of the drug, the plates are incubated for ten days. 2.

[8] = CPE inhibition, read-out: Antiviral Activities (EC50) Measles (CPE)
[9] = neutral red (NR) dye uptake, read-out: Antiviral Activities (EC50) Measles (NR)
[10] = human gammaherpesvirus 4; read-out: Antiviral Activities (EC50) EBV
[11] = CPE inhibition, read-out: Antiviral Activities (EC50) Rhinovirus (CPE)
[12] = neutral red (NR) dye uptake, read-out: Antiviral Activities (EC50) Rhinovirus (NR)
[13] = Human alphaherpesvirus 3, Fibroblast; read-out: Antiviral Activities (EC50) VZV
[14] = CPE inhibition, read-out: Antiviral Activities (EC50) Respiratory Syncitial (CPE)
[15] = neutral red (NR) dye uptake, read-out: Antiviral Activities (EC50) Respiratory Syncitial (NR)

SMILES | EC50 [1] | EC50 [3] | EC50 [4, 8] | EC50 [4, 9] | EC50 [2, 10] | EC50 [6, 11] | EC50 [6, 12] | EC50 [7, 13] | EC50 [5, 14] | EC50 [5, 15] | other results
CCCc1cc(=O)oc2cc(OC(C)CCO[Si](C)(C)C(C)(C)C)c3c(c12)OC(C)(C)C=C3 (stereo not drawn) | > 18 µg/mL | – | – | – | – | – | – | – | – | – | –
CCCc1cc(=O)oc2cc(O)cc(O)c12 | – | > 2.2 µg/mL | > 100 µg/mL | > 100 µg/mL | – | – | – | – | – | – | EC50 ([2]; human gammaherpesvirus 4, read-out: Antiviral Activities (EC50) EBV): > 50 µg/mL; EC50 ([5]; readout not stated, read-out: Antiviral Activities (EC50) Respiratory Syncitial): 6 µg/mL (≈ 27.2 µM); EC50 ([6]; readout not stated, read-out: Antiviral Activities (EC50) Rhinovirus): 27 µg/mL (≈ 123 µM); EC50 ([7]; Human alphaherpesvirus 3, Fibroblast, read-out: Antiviral Activities (EC50) VZV): 5.9 µg/mL (≈ 26.8 µM)
CCCc1cc(=O)oc2cc(O)c(C(=O)CC)c(O)c12 | > 5 µg/mL | 1 µg/mL (≈ 3.62 µM) | 3 µg/mL (≈ 10.9 µM) | 0.4 µg/mL (≈ 1.45 µM) | 8.5 µg/mL (≈ 30.8 µM) | 2 µg/mL (≈ 7.24 µM) | 5 µg/mL (≈ 18.1 µM) | > 4 µg/mL | – | – | –
CCCc1cc(=O)oc2c(C(=O)CC)c(O)cc(O)c12 | – | > 3 µg/mL | 10 µg/mL (≈ 36.2 µM) | > 100 µg/mL | 0.33 µg/mL (≈ 1.19 µM) | 30 µg/mL (≈ 109 µM) | 28 µg/mL (≈ 101 µM) | > 0.8 µg/mL | 2 µg/mL (≈ 7.24 µM) | 4 µg/mL (≈ 14.5 µM) | –
CCCc1cc(=O)oc2c(C(=O)CC)c(O)c3c(c12)OC(C)(C)C=C3 | > 68 µg/mL | > 3 µg/mL | 20 µg/mL (≈ 58.4 µM) | > 100 µg/mL | 27 µg/mL (≈ 78.9 µM) | – | – | 16.1 µg/mL (≈ 47 µM) | 20 µg/mL (≈ 58.4 µM) | 40 µg/mL (≈ 117 µM) | –
CCCc1cc(=O)oc2cc(O[C@H](C)[C@@H](C)CO)c3c(c12)OC(C)(C)C=C3 | > 2 µg/mL | – | – | – | – | – | – | – | – | – | –
CCCc1cc(=O)oc2cc(O[C@H](C)[C@@H](C)CO[Si](C)(C)C(C)(C)C)c3c(c12)OC(C)(C)C=C3 | 7.2 µg/mL (≈ 14.8 µM) | – | – | – | – | – | – | – | – | – | –
CCCc1cc(=O)oc2c(C(=O)C(C)(O)C(C)O)c(O)c3c(c12)OC(C)(C)C=C3 (stereo not drawn) | > 24 µg/mL | > 4 µg/mL | 20 µg/mL (≈ 49.7 µM) | 40 µg/mL (≈ 99.4 µM) | – | 0.5 µg/mL (≈ 1.24 µM) | 1 µg/mL (≈ 2.48 µM) | 19.9 µg/mL (≈ 49.4 µM) | 50 µg/mL (≈ 124 µM) | 40 µg/mL (≈ 99.4 µM) | –
CCCc1cc(=O)oc2c3c(c4c(c12)OC(C)(C)[C@H](O)[C@H]4OC(=O)c1cccc(Cl)c1)O[C@H](C)[C@@H](C)[C@@H]3O | 8.4 µg/mL (≈ 15.5 µM) | – | – | – | – | – | – | – | – | – | –
CCCc1cc(=O)oc2cc(OC(=O)C(C)(C)C)cc(O)c12 [drawing 26] | – | > 3 µg/mL | – | – | 1.1 µg/mL (≈ 3.61 µM) | – | – | 83 µg/mL (≈ 273 µM) | – | – | –
